{"source": "patent US20030099677A1", "about": "“Cosmetic composition and method of treating skin” (Unilever Home & Personal Care USA, Division of Conopco. Inc., priority 2001, published 2003)", "type_in_all_cases": "cell-based", "key": {"[1]": {"tested_on": "procollagen-I synthesis in human dermal fibroblasts", "assay": "Dot blot assay for procollagen-I in dermal fibroblast conditioned medium", "settings": "for Pro-collagen: 24 hours, relative to vehicle treated control value of 100", "procedure": "(§1) Primary human foreskin fibroblasts at passage 2 (P2) were seeded into 12-well plates at 10000 cells/cm^2 and maintained for 24 hours in an atmosphere of 5% carbon dioxide and 4% oxygen in Dulbeccos Modified Eagles Medium (DMEM) supplemented with 10% foetal calf serum. After this time the cells were washed with serum free DMEM and then incubated in fresh serum free DMEM for a further 60 hours. The fibroblast monolayers were then washed again with serum free DMEM. Test reagents and vehicle controls were added to the cells in triplicate in a final volume of 0.4 ml/well fresh serum free DMEM and incubated for a further 24 hours. This fibroblast conditioned medium was either analysed immediately or snap frozen in liquid nitrogen and stored at −70° C. for future analysis. The cells were then counted and data from the dot-blot analysis subsequently standardised to cell number.\n(§2) Samples of conditioned medium from dermal fibroblasts treated with vehicle (as a control) or test reagents were supplemented with 20 mM dithiothreitol (1:10 dilution of 200 mM stock solution) and 0.1% sodium dodecylsulphate (1:100 dilution of 10% stock solution), mixed well and then incubated at 75° C. for 2 minutes. […]\n(§3) Following this the Immobilon strips were again washed with TBS/Tween 20 (3×5 minutes) before being allowed to dry in air at room temperature. […] Dot intensity was assessed by computer-assisted image analysis using the quantification tools in ImageQuant™, standardised to cell number and the effects of various test reagents on decorin and procollagen-I synthesis were determined relative to a vehicle treated control value of 100 arbitrary units.\n(§4) Tables 1 indicates the effects of trans-7-octadecanoic acid on procollagen-I and decorin synthesis in human dermal fibroblasts, and the amounts in which it was applied. In order to normalize the results the effects of the test substance was determined relative to a vehicle treated control value of 100 arbitrary units."}, "[2]": {"tested_on": "decorin synthesis in human dermal fibroblasts", "assay": "Dot blot assay for decorin in dermal fibroblast conditioned medium", "settings": "for Decorin: 24 hours, relative to vehicle treated control value of 100", "procedure": "as §1, §2, §3, §4"}, "[3]": {"tested_on": "Human foreskin keratinocytes", "assay": "Keratinocyte cornified envelope assay (marker of keratinocyte differentiation)", "procedure": "Method to Assess Effect of Active on Keratinocyte Cornified Envelope Production—a Marker of Keratinocyte Differentiation\n(§5) […] The cells were grown for 3 days prior to treatment. The treatment vehicle was DMSO. After 4 days of treatment, the cells were harvested and washed three times with 100 μl phosphate buffered saline (PBS). The cells were then extracted in 1% Triton X100, 50 mM Tris pH 8.0, 0.02 mM Leupeptin, 0.02 mM Pepstatin. 60 μl/well extract was then assayed for DNA concentration (ng/well), Pico Green DNA assay, Molecular Probes.\nThe cells were then washed in 200 μl PBS, and then 100 μl of 2% SDS, 20 mM DTT was added to each well. The plates were then sealed with a Titertek plate sealer (ICN) and incubated at 60° C. over night in an air-tight damp environment (i.e. a sealed sandwich box lined with damp paper). The extract was then filtered through a PVDF transfer membrane (Bio-rad) under gravity using Dot-Blot apparatus (Bio-rad). The membrane was then washed in distilled water prior to silver staining (Bio-rad Silver Stain kit). The stained dot blot membrane was then analyzed using Phoretix array software (Phoretix International)."}, "[4]": {"tested_on": "Human foreskin keratinocytes", "assay": "Pico Green DNA assay of keratinocyte extracts (proliferation)", "procedure": "as §5"}, "[5]": {"tested_on": "Transglutaminase activity in pigskin epidermis", "assay": "In situ TGase assay in pig skin organ culture", "settings": "for Transglutaminase activity (fluorescence-background) Mean: pig organ culture, 48 hours", "procedure": "Porcine back skin was prepared by carefully removing subcutaneous fat and muscle resulting in a skin sample 3-4 mm thick. Hair was clipped and the skin was washed in water, removing any residual blood or dirt. The skin sample was cut into 7 cm×7 cm squares and incubated in 5% Dettol (sterile) for 1 hr at room temp (RT). It was then incubated in DMEM containing ABAM (5 mL/500 mL of medium) for 1 hr. Hydrocortisone 21-hemisuccinate (100îg/mL, sterile filtered) was added to DMEM+ABAM. Tripods and meshes were set up on petri dishes containing 3 ml of media (DMEM/ABAM/hydrocortisone), creating a negative meniscus. Punch biopsies were taken from the skin and placed onto the mesh (4 per dish), and then incubated for 24 hrs at 37° C., 5% CO2 before being treated. Media was changed daily.\nA stock solution of 10 mM Biotinylated monodansylcadaverine in 0.013M HCl was, and stored at −20° C. From the stock solution substrate buffer was prepared: 0.1 mM biotinylated monodansylcadaverine, 5 mM CaCl2 in 100 mM Tris HCl. 5 mM CaCl2 was replaced with 200 mM EDTA for a […] control.\nPig skin biopsies were snap frozen in liquid nitrogen and stored at −20° C. Sections were cut (5-8 microns thick, Brights cryostat) and air-dried for 10 minutes at room temperature (RT). The sections were incubated for 30 minutes at RT with 1% BSA in 0.1M Tris/HC1, pH 8.4 then incubated in substrate buffer for 2 hours at RT. The slides were washed to stop the reaction in 25 mM EDTA in PBS for 5 minutes, followed by two washes in PBS. The slides were then incubated in Alexa fluor 488 streptavidin (1:250) for 30 minutes at RT, then washed in PBS as before. The slides were counterstained with 10îg/ml propidium iodide for 10 seconds, then washed in water and mounted in prolong antifade solution. Sections were visualised using a Microscope (Leica, Leitz DMRB, Leitz ploemopak filter block L3, Milton Keynes, Bucks. UK) and images were captured using Image Grabber PC Software (Neotech Ltd. Eastleigh, Hampshire, UK). […]"}, "[6]": {"settings": "human dermal fibroblasts, statement in words"}, "[7]": {"settings": "Table 3, 1 μM, grown in 1.2 mM calcium"}, "[8]": {"settings": "Table 4, 0.001 μM, low calcium, P = 0.002"}}, "data": [{"smiles": "CCCCCCCCCC/C=C/CCCCCC(=O)O", "note": "[Trans-7-octadecanoic acid, trans-7-octadecanoic acid]", "values": [{"measurement": "Pro-collagen", "setting": "[1]; 0.1 μM", "result": 194.96, "unit": "arbitrary units"}, {"measurement": "Pro-collagen", "setting": "[1]; 1.0 μM", "result": 126.63, "unit": "arbitrary units"}, {"measurement": "effect on synthesis of procollagen-I as compared to the control", "setting": "[1]; [6]", "result": "significantly up-regulates"}, {"measurement": "Decorin", "setting": "[2]; 1.0 μM", "result": "163.10 % of vehicle control"}, {"measurement": "Decorin", "setting": "[2]; 10.0 μM", "result": "134.04 % of vehicle control"}, {"measurement": "effect on synthesis of decorin as compared to the control", "setting": "[2]; [6]", "result": "significantly up-regulates"}, {"measurement": "Cornified Envelope Assay Mean", "setting": "[3]; Table 2, 1 μM, grown in 1.2 mM calcium, 4 days of treatment", "result": 57900}, {"measurement": "Cornified Envelope Assay Mean", "setting": "[3]; Table 2, 10 μM, grown in 1.2 mM calcium, 4 days of treatment", "result": 54689}, {"measurement": "Cornified Envelope Assay Mean", "setting": "[3]; Table 2, 50 μM, grown in 1.2 mM calcium, 4 days of treatment", "result": 49272}, {"measurement": "Cornified Envelope Assay Mean", "setting": "[3]; Table 2, 100 μM, grown in 1.2 mM calcium, 4 days of treatment", "result": 42110}, {"measurement": "Cornified Envelope Assay Mean", "setting": "[3]; Table 3, 0.1 μM, grown in 1.2 mM calcium", "result": 37930}, {"measurement": "Cornified Envelope Assay Mean", "setting": "[3]; [7]", "result": 47773}, {"measurement": "Cornified Envelope Assay Mean", "setting": "[3]; [8]", "result": 39627}, {"measurement": "Cornified Envelope assay % control", "setting": "[3]; [8]", "result": 212, "unit": "% control"}, {"measurement": "Cornified Envelope Assay Mean", "setting": "[3]; Table 4, 0.01 μM, low calcium", "result": 22221}, {"measurement": "Cornified Envelope assay % control", "setting": "[3]; Table 4, 0.01 μM, low calcium", "result": 119, "unit": "% control"}, {"measurement": "effect on cornified envelope production", "setting": "[3]; in low calcium, at low concentrations, statement in words", "result": "induces cornified envelope production"}, {"measurement": "DNA Mean", "setting": "[4]; Table 2, 1 μM, grown in 1.2 mM calcium, p < 0.05", "result": 9, "unit": "ng/well"}, {"measurement": "DNA Mean", "setting": "[4]; Table 2, 10 μM, grown in 1.2 mM calcium, p < 0.05", "result": 7, "unit": "ng/well"}, {"measurement": "DNA Mean", "setting": "[4]; Table 2, 50 μM, grown in 1.2 mM calcium", "result": 6, "unit": "ng/well"}, {"measurement": "DNA Mean", "setting": "[4]; Table 2, 100 μM, grown in 1.2 mM calcium", "result": 4, "unit": "ng/well"}, {"measurement": "DNA Mean", "setting": "[4]; Table 3, 0.1 μM, grown in 1.2 mM calcium, P < 0.05", "result": 5, "unit": "ng/well"}, {"measurement": "DNA Mean", "setting": "[4]; [7]", "result": 6, "unit": "ng/well"}, {"measurement": "DNA % control", "setting": "[4]; Table 4, 0.001 μM, low calcium", "result": 100, "unit": "% control"}, {"measurement": "DNA Mean", "setting": "[4]; Table 4, 0.001 μM, low calcium", "result": 1.41, "unit": "ng/well"}, {"measurement": "DNA % control", "setting": "[4]; Table 4, 0.01 μM, low calcium", "result": 100, "unit": "% control"}, {"measurement": "DNA Mean", "setting": "[4]; Table 4, 0.01 μM, low calcium", "result": 1.42, "unit": "ng/well"}, {"measurement": "effect on keratinocyte proliferation", "setting": "[4]; in high calcium, statement in words", "result": "proliferation enhancer"}, {"measurement": "Transglutaminase activity (fluorescence-background) Mean", "setting": "[5]; 0.1 μM", "result": 1908}, {"measurement": "effect on transglutamine cross linking activity", "setting": "[5]; 1 μM, intact pigskin epidermis, statement in words", "result": "induces transglutamine cross linking activity"}, {"measurement": "Transglutaminase activity (fluorescence-background) Mean", "setting": "[5]; 1 μM", "result": 2268}]}]}
